pIC50: −log10 of the molar value. In brackets after ≈: the same amount, converted by molar mass. Like-named read-outs stand apart in the source and are kept apart here.
Columns and labels:
[1] = tested on: E. coli Imp4213 (BAS3023); assay: MIC, microdilution in Mueller-Hinton Broth; format: cell-based; details: Escherichia coli, read-out: Whole cell based antibacterial activity (MIC) E. coli Imp4213 (BAS3023), membrane permeable imp mutant
E. coli (MG1655) WT = assay: MIC, microdilution in Mueller-Hinton Broth; details: Escherichia coli, MG1655; wild type; read-out: Whole cell based antibacterial activity (MIC) E. coli (MG1655) WT
E. coli DNA gyrase = E. coli DNA gyrase (Escherichia coli (strain K12), UniProt P0AES4+P0AES6); assay: DNA gyrase supercoiling inhibition assay; format: biochemical; details: supercoiling of relaxed DNA; read-out: Topoisomerase inhibitory activity (IC50) E. coli DNA gyrase (type IIA)
Method: (§1) Recombinant E. coli topoisomerase I and gyrase expressed in E. coli were purified as described previously.
The samples were incubated at 37° C. for 30 minutes before being terminated by the addition of a buffer containing 5% SDS, 0.25% bromophenol blue, and 25% glycerol. The reactions were then analyzed by agarose gel electrophoresis.

E. coli topoisomerase I = E. coli topoisomerase I (Escherichia coli (strain K12), UniProt P06612); assay: biochemical; format: biochemical; details: for PIC50 (pIC50 = −log IC50): experimental, converted from IC50; for pIC50: relaxation of supercoiled plasmid DNA
Method: as §1
E. coli Topoisomerase I Relaxation Activity Inhibition Assay
The relaxation activity of E. coli topoisomerase I was assayed in a buffer containing 10 mM Tris-HCl, pH 8.0, 50 mM NaCl, 0.1 mg/mL gelatin, and 0.5 mM MgCl2. Half microliter from the appropriate stock solutions of compounds dissolved in the solvent (DMSO) or the solvent alone (control) was mixed with 9.5 μL of the reaction buffer containing 10 ng of enzyme before the addition of 10 μL of reaction buffer containing 200 ng of supercoiled pBAD/Thio plasmid DNA purified by cesium chloride gradient as substrate. Following incubation at 37° C. for 30 min, the reactions were terminated by the addition of 4 μL of a stop buffer (50% glycerol, 50 mM EDTA, and 0.5% (v/v) bromophenol blue), and analyzed by agarose gel electrophoresis. The gels were stained in ethidium bromide and photographed under UV light.

bacterial strains = assay: Whole cell antibacterial activity after storage; format: cell-based; details: after 4 weeks of storage
Human topoisomerase I = Human topoisomerase I (Homo sapiens (Human), UniProt P11387); assay: Human topoisomerase I relaxation inhibition assay; format: biochemical; details: read-out: Topoisomerase inhibitory activity (IC50) Human topo I (type IB)
Method: Human topoisomerase I relaxation assays were carried out with 0.5 U of enzyme in reaction buffer supplied by the manufacturer. The enzyme was mixed with the indicated concentration of compound dissolved before 200 ng of supercoiled pBAD/Thio plasmid DNA was added in the same buffer, for a final volume of 20 μL. Following incubation at 37° C. for 30 minutes, the reactions were terminated with a buffer containing 5% SDS, 0.25% bromophenol blue, and 25% glycerol, and analyzed by agarose gel electrophoresis.
Human topoisomerase I and topoisomerase IIα were purchased from TopoGen (Buena vista, CO, USA).

Human topoisomerase IIα = Human topoisomerase IIα (Homo sapiens (Human), UniProt P11388); assay: Human topoisomerase IIα decatenation inhibition assay; format: biochemical; details: kDNA decatenation; read-out: Topoisomerase inhibitory activity (IC50) Human topo IIα (type IIA)
Method: Human topoisomerase I and topoisomerase IIα were purchased from TopoGen (Buena vista, CO, USA). […] The reactions were then analyzed by electrophoresis in 1% agarose gels containing […] ethidium bromide before being photographed under UV light.

[2] = 1H NMR experiments
[3] = tested on: all the test bacteria strains; assay: Whole cell antibacterial activity across all test strains; format: cell-based; details: range over strains; read-out: MICs against all the test bacteria strains
[4] = tested on: mycobacterium smegmatis in biofilm; assay: Biofilm viability by resazurin assay; format: cell-based
Method: Viability of the mycobacteria mycobacterium smegmatis in biofilm was measured by the resazurin assay.
The resazurin assay is a quick method using the resazurin dye as a bacterial respiration indicator to assay the antibacterial activity of various compounds used against bacterial biofilm growth. Such assay is well-known in the art. […] The biofilm was quantified indirectly by measuring the fluorescent, water-soluble resorufin product produced when resazurin is reduced by reactions associated with respiration.

[5] = Vero cell cytotoxicity assay; format: cell-based
Method: (§2) MICs of compounds against M. tuberculosis were determined by a modified microplate Alamar blue assay (MABA). Vero cell cytotoxicity assay was performed as previously described.

Vero cells = assay: Vero cell cytotoxicity assay; format: cell-based; details: Chlorocebus sabaeus, Vero; cytotoxicity
Method: as §2

M. tuberculosis (H37Rv) = assay: MIC, microplate Alamar blue assay (MABA); format: cell-based
[6] = biological target: Mycobacterium tuberculosis topoisomerase I (Mycobacterium tuberculosis (strain ATCC 25618 / H37Rv), UniProt P9WG49); assay: Mycobacterium tuberculosis topoisomerase I inhibition; format: biochemical; details: Table 2; read-out: IC50 against Mycobacterium tuberculosis topoisomerase I
[7] = tested on: MRSA (staphylococcus aureus BAA44); assay: MIC against MRSA; format: cell-based
[8] = tested on: several cancer cell lines; details: literature [32]; read-out: IC50 against several cancer cell lines; cited from earlier work
[9] = Topoisomerase inhibitory activity (IC50) E. coli topo I (type IA)

Sequence of E. coli topoisomerase I (P06612 whole entry, looked up): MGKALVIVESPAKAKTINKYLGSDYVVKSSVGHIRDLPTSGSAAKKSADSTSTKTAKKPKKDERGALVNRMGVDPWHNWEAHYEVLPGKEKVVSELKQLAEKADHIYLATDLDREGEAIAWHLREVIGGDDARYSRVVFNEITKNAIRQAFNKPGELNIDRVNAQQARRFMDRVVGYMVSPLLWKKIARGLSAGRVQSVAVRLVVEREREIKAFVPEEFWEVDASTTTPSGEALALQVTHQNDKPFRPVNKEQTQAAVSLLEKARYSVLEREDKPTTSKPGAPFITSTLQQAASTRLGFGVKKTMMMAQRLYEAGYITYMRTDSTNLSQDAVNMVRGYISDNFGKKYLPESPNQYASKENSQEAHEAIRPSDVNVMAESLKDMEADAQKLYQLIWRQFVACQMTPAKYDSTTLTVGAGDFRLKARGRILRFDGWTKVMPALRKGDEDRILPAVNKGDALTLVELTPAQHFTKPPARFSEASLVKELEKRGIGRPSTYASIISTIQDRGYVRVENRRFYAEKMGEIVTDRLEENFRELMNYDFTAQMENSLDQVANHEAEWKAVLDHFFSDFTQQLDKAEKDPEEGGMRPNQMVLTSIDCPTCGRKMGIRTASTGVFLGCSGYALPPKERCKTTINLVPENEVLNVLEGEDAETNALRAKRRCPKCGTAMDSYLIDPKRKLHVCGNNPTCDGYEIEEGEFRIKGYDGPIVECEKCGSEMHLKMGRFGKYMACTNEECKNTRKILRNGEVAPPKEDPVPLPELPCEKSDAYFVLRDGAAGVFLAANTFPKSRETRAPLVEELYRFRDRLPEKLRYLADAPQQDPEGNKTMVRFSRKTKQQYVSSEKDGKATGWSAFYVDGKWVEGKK
Sequence of Human topoisomerase I (P11387 whole entry): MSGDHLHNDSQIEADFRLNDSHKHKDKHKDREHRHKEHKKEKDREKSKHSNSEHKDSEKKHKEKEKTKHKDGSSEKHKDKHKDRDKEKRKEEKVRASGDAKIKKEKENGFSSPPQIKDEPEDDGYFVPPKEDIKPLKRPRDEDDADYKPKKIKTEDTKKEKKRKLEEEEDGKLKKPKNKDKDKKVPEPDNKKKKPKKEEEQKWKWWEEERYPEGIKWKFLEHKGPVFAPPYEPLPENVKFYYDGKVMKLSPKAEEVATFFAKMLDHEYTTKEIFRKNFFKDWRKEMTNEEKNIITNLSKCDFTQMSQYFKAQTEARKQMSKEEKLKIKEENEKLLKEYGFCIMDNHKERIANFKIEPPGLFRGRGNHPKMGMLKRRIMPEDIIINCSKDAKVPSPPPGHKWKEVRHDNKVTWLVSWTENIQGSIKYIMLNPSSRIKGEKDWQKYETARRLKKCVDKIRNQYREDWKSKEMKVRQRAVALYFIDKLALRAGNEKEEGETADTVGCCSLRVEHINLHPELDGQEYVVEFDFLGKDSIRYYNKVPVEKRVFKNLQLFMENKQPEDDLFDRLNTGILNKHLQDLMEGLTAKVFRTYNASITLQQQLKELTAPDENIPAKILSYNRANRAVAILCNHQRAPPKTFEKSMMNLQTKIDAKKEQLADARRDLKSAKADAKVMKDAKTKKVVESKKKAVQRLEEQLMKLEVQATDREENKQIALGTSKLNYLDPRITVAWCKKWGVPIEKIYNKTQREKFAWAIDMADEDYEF
Sequence of Human topoisomerase IIα (P11388 whole entry): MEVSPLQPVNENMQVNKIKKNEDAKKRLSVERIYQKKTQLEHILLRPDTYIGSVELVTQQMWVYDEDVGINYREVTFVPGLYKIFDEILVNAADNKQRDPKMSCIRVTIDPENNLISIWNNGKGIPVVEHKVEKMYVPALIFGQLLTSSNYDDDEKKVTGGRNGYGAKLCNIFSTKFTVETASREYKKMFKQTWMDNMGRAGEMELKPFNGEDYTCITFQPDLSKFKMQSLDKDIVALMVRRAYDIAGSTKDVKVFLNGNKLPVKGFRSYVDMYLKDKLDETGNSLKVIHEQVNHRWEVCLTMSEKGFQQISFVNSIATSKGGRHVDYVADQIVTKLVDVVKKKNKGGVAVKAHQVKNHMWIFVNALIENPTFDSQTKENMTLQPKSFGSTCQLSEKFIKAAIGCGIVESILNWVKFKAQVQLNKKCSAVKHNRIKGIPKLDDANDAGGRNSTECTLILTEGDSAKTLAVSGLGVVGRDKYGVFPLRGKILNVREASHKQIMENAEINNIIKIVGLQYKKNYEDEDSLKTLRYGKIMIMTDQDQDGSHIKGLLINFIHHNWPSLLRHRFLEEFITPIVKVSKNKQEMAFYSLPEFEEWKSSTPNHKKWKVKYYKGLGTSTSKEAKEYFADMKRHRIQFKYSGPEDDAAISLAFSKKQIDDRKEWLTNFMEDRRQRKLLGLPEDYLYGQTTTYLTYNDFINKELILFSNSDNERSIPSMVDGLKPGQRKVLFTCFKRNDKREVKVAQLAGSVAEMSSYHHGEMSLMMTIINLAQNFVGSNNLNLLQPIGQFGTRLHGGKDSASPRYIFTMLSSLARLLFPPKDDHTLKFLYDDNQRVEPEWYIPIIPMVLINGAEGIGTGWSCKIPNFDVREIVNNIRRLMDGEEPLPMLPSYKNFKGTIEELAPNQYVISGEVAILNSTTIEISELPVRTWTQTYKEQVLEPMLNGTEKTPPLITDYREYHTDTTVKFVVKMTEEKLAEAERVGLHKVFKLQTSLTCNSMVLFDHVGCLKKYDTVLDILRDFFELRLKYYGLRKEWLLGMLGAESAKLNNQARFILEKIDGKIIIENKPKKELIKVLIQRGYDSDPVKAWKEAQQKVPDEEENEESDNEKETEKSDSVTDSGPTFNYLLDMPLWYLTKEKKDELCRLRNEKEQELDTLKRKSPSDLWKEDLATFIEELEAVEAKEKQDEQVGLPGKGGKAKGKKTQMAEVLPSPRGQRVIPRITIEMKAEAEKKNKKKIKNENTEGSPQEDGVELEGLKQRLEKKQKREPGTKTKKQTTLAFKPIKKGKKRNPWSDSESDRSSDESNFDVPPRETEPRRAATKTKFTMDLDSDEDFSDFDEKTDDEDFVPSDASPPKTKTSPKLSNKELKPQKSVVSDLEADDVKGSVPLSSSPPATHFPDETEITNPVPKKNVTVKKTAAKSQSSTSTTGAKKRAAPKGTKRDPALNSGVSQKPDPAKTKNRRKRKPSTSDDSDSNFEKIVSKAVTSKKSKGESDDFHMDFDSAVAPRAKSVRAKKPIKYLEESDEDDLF

Row | Structure (SMILES) | MIC [1] [µM] | MIC (E. coli (MG1655) WT) [µM] | pIC50 (E. coli DNA gyrase) | PIC50 (pIC50 = −log IC50) (E. coli topoisomerase I) | loss of whole cell antibacterial activity after storage (bacterial strains) | pIC50 (Human topoisomerase I) | pIC50 (Human topoisomerase IIα) | precipitation in d6-DMSO solvent [2] | MIC [3] [µM] | pIC50 (E. coli topoisomerase I; [9]) | concentration that abolishes 90% of viability in biofilm [4] [µM] | selectivity ratio ([5]; African green monkey) | selectivity ratio ([5]; monkey) | pIC50 (Vero cells) | MIC (M. tuberculosis (H37Rv); Mycobacterium tuberculosis strain H37Rv, Table 2, read-out: MIC (TB)) [µM] | MIC (M. tuberculosis (H37Rv); Mycobacterium tuberculosis, H37RV, MABA, read-out: Whole cell based antibacterial activity (MIC) M. tuberculosis (H37Rv)) [µM] | pIC50 (E. coli topoisomerase I; read-out: Topoisomerase inhibitory activity (IC50) E. coli topo I (type IA)) | pIC50 [6] | MIC [7] [µM] | pIC50 [8]
1 | Nc1ccc2c(c1)Oc1c(F)c(F)cc3c(=O)c(C(=O)O)cn-2c13 [Compound 1, 9-Amino-5,6-difluoro-3-oxo-3H-pyrido[3,2,1-kl]phenoxazine-2-carboxylic acid] | 0.78 to 1.56 (≈ 0.258 to 0.515 µg/mL) | > 200 | < 3.90 | 5.71 | 2-4 fold | 4.50 | < 3.30 | could be easily precipitated out | – | – | – | – | – | – | – | – | – | – | – | –
2 | CN1CCN(c2c(F)cc3c(=O)c(C(=O)O)cn4c3c2Oc2cc(N)ccc2-4)CC1 [Compound 11a, 9-Amino-5-fluoro-6-(4-methylpiperazin-1-yl)-3-oxo-3H-pyrido[3,2,1-kl]phenoxazine-2-carboxylic acid] | – | 6.25 (≈ 2.57 µg/mL) | – | 6.32 | – | 4.81 | – | – | 0.78 to 7.6 (≈ 0.32 to 3.12 µg/mL) | 6.01 to 6.62 | – | – | – | – | – | – | – | – | – | –
3 | Nc1ccc2c(c1)Oc1c(N3CCC(N4CCCCC4)CC3)c(F)cc3c(=O)c(C(=O)O)cn-2c13 [Compound 11g, 6-([1,4′-Bipiperidin]-1′-yl)-9-amino-5-fluoro-3-oxo-3H-pyrido[3,2,1-kl]phenoxazine-2-carboxylic acid] | 0.39 to 0.78 (≈ 0.187 to 0.373 µg/mL) | > 200 | 4.81 | 6.31 | – | 5.41 | 5.41 to 5.71 | – | – | 6.01 to 6.62 | 1.5 to 3 | 9.8 | 9.8 | 4.61 | 2.5 (≈ 1.2 µg/mL) | 2.5 (≈ 1.2 µg/mL) | 6.32 | 6.62 | 12.5 (≈ 5.98 µg/mL) | –
4 | N[C@H]1CCN(c2c(F)cc3c(=O)c(C(=O)O)cn4c3c2Oc2ccccc2-4)C1 [Compound A-62176] | – | – | – | – | – | – | – | – | – | – | – | – | – | – | – | – | – | – | – | 5.36 to 6.06

Source: US10266550B2, “Bacterial topoisomerase I inhibitors with antibacterial activity” (The Florida International University Board of Trustees, priority 2016, dated 2019)
